Laboratory results as given in patent US20110171332A1, “LEUCOJUM BULB EXTRACTS AND USE THEREOF” (I.B.R. ISRAELI BIOTECHNOLOGY RESEARCH LTD., priority 2008, published 2011).

System: nerve-muscle co-culture
Assay: Muscle contraction frequency in nerve-muscle co-culture
Format: cell-based, human, rat
Conditions: carisoprodol 5×10^−3M; for Contraction (%): % of contractions at T0; for Contraction (%) / Result: single wells
Method: The nerve-muscle co-culture model is a model suited to studying the influence of a substance on a muscle contraction frequency. The number of muscular contractions is counted during a given time, before and after applying the examined substance to the co-culture. The number of contractions in the presence of the substance is expressed in percentage compared to the initial number of contractions. An inhibitory effect on muscle contraction is determined if a significant reduction or blocking of the muscular contraction frequency is observed in at least 2 wells out of 3 wells containing the nerve-muscle co-culture.
Human muscular cells were seeded in 24-wells culture plates. Cells were incubated at 37° C., 5% CO2 during the entire culture duration.
After 5 days of culture, spinal cords were isolated from rat embryos, and were cut in small parts (explants). One explant per culture well was placed on the muscular cells, and both cell types were cultivated in 24-wells plate for 21 days.
During the cultivation period, the muscular cells merge and form muscular fibers. The motor neurons present in the spinal cord emit nervous extensions which contact the muscular fibers. Neuro-muscular junctions are formed and muscular contractions appear.
After 21 days of co-culture, the model was mature and functional. The muscular fibers innervated spontaneously and contracted in a regular way.
A stock solution of the test extract was prepared in the culture medium. This solution was applied to the nerve-muscle culture.
The culture medium alone served as a negative control.
The positive control was carisoprodol, a drug which blocks the muscular contraction in a reversible way. A stock solution of carisoprodol was prepared in DMSO at 1M. This solution was diluted at 1/200 into the culture medium (final concentration of 5×10^−3M). Three culture wells were used per treatment (control/test extract).
The trial started at the 21st day of the culture.
The microscope is equipped with a motorized stage piloted by a LUCIA software. It is also combined with a camera and connected to a computer allowing the recording of video sequences.
For each selected culture well, a muscle fiber showing regular contractions is referenced. The XY data of this fiber were registered using the LUCIA software. The frequency of the contractions of this fiber was manually counted during 30 seconds, and a video sequence was recorded (T0). The same operation was carried out for all wells.
The test extract and the references were applied to the nerve-muscle culture, and the trial system was incubated at 37° C., 5% CO2.
After 2 hours, 6 hours and 24 hours of incubation, the contraction frequency was counted again during 30 seconds and a video sequence was also recorded for each counting.
For each culture well, the number of muscular contractions counted in the presence of the examined extract is expressed in percentage compared to the number of contractions counted before extract application (T0).
When the frequency of contractions is in the range of between 80%-120% compared to T0, the modulation of the muscular contractions frequency is not considered as significant. This range is based on the fact that during the time, the muscular contraction frequency can vary slightly, independent on the conditions applied.
The results are expressed as follows: • No significant variation in the muscular contractions frequency: contractions percentage between 80 and 120%, symbolized by (=) • A significant reduction in the muscular contractions frequency: contractions percentage <80%, symbolized by (−). • Blocking of the muscular contractions frequencies: contractions percentage=0%, symbolized by (0) • A significant increase in the muscular contractions frequencies: contractions percentage >120%, symbolized by (+).
The product effect is assessed only if the same result is obtained in at least 2 out of 3 culture wells (i.e. 2 out of 3 muscle fibers).

CCCC(C)(COC(N)=O)COC(=O)NC(C)C (stereo not shown) [Carisoprodol, carisoprodol]
conclusion (2 h incubation): Blocked | Contraction (%) (2 h incubation): 0% | conclusion (2 h incubation, listed as carisoprodol): complete blockage | Result (2 h incubation): 0 (Blocking of the muscular contractions frequencies: contractions percentage=0%) | conclusion (6 h incubation): Blocked | Contraction (%) (6 h incubation): 0% | conclusion (6 h incubation, listed as carisoprodol): complete blockage | Result (6 h incubation): 0 (Blocking of the muscular contractions frequencies: contractions percentage=0%) | conclusion (24 h incubation): Blocked | Contraction (%) (24 h incubation): 0% | conclusion (24 h incubation, listed as carisoprodol): complete blockage | Result (24 h incubation): 0 (Blocking of the muscular contractions frequencies: contractions percentage=0%) | reversibility of the effect on muscle contractions after rinsing off (after rinsing off): reversible
